Measurements taken from US8349872B2, “Tripyridyl carboxamide orexin receptor antagonists” (Merck Sharp & Dohme Corp., priority 2008, dated 2013).

Each compound was assayed against T1, OX2 receptor (Homo sapiens, UniProt O43614) (assay: radioligand binding assay, OX2 receptor). Settings: membranes prepared from CHO cells expressing the OX2 receptor; read-out: OX2R Ki.
T1 construct: expressed in transfected cells; host or cells: CHO cells (membranes)
T1 sequence (O43614 1-444): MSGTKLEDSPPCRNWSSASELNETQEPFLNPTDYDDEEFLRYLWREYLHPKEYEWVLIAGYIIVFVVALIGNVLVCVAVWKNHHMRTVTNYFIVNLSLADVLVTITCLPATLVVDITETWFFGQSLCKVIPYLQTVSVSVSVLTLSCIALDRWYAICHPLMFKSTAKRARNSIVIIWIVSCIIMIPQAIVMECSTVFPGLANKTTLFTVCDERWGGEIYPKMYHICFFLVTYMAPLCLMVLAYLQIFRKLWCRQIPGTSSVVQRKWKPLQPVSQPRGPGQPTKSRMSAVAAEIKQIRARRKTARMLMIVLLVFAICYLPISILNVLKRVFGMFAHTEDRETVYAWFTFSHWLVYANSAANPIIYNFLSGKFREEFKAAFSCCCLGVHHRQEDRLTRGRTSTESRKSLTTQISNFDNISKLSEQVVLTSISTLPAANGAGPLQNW
Experimental: The utility of the compounds in accordance with the present invention as orexin receptor OX1R and/or OX2R antagonists may be readily determined without undue experimentation by methodology well known in the art, including the “FLIPR Ca^2+ Flux Assay” (Okumura et al., Biochem. Biophys. Res. Comm. 280:976-981, 2001). In a typical experiment the OX1 and OX2 receptor antagonistic activity of the compounds of the present invention was determined in accordance with the following experimental method. For intracellular calcium measurements, Chinese hamster ovary (CHO) cells expressing the rat orexin-1 receptor or the human orexin-2 receptor, are grown in Iscove's modified DMEM containing 2 mM L-glutamine, […], 1% hypoxanthine-thymidine supplement, 100 U/ml penicillin, 100 ug/ml streptomycin and 10% heat-inactivated fetal calf serum (FCS). The cells are seeded at 20,000 cells/well into Becton-Dickinson black 384-well clear bottom sterile plates coated with poly-D-lysine. All reagents were from GIBCO-Invitrogen Corp. The seeded plates are incubated overnight at 37° C. and 5% CO2. Ala-6,12 human orexin-A as the agonist is prepared as a 1 mM stock solution in 1% bovine serum albumin (BSA) and diluted in assay buffer (HBSS containing 20 mM HEPES, 0.1% BSA and 2.5 mM probenecid, pH 7.4) for use in the assay at a final concentration of 70 pM. Test compounds are prepared as 10 mM stock solution in DMSO, then diluted in 384-well plates, first in DMSO, then assay buffer. On the day of the assay, cells are washed 3 times with 100 ul assay buffer and then incubated for 60 min (37° C., 5% CO2) in 60 ul assay buffer containing 1 uM Fluo-4AM ester, 0.02% pluronic acid, and 1% BSA. The dye loading solution is then aspirated and cells are washed 3 times with 100 ul assay buffer. 30 ul of that same buffer is left in each well. Within the Fluorescent Imaging Plate Reader (FLIPR, Molecular Devices), test compounds are added to the plate in a volume of 25 ul, incubated for 5 min and finally 25 ul of agonist is added. Fluorescence is measured for each well at 1 second intervals for 5 minutes and the height of each fluorescence peak is compared to the height of the fluorescence peak induced by 70 pM Ala-6,12 orexin-A with buffer in place of antagonist. For each antagonist, IC50 value (the concentration of compound needed to inhibit 50% of the agonist response) is determined. Alternatively, compound potency can be assessed by a radioligand binding assay (described in Bergman et. al. Bioorg. Med. Chem. Lett. 2008, 18, 1425-1430) in which the inhibition constant (Ki) is determined in membranes prepared from CHO cells expressing either the OX1 or OX2 receptor. The intrinsic orexin receptor antagonist activity of a compound which may be used in the present invention may be determined by these assays.

Row | Compound | Ki [nM]
1 | COc1ccc(CNC(=O)c2cc(-c3cc(C)cnc3F)cnc2-c2ccccn2)cc1Cl [11-5, N-(3-chloro-4-methoxybenzyl)-2″-fluoro-5″- methyl-2,2′: 5′,3 ″-terpyridine-3′-carboxamide] | 1.3
2 | COc1ccc(CNC(=O)c2cc(-c3cncc(C)c3)cnc2-c2ccccn2)nc1OC [12-6, N-[(5,6-dimethoxypyridin-2-yl)methyl]-5″-methyl-2,2′:5′,3″-terpyridine-3′-carboxamide] | 0.46
3 | COc1ccc(CNC(=O)c2cc(-c3cncc(C#N)c3)cnc2-c2ccccn2)nc1OC [12-14, 5″-cyano-N-[(5,6-dimethoxypyridin-2-yl)methyl]-2,2′:5′,3″- terpyridine-3′-carboxamide] | 12
4 | N-(4-ethyl-3- methoxybenzyl)-5″- methyl-2,2′:5′,3″- terpyridine-3′- carboxamide [12-17] | 1.2
5 | COc1ccc(CNC(=O)c2cc(-c3cncc(Cl)c3)cnc2-c2ccccn2)nc1OC [12-5, 5″-chloro-N-[(5,6-dimethoxypyridin-2-yl)methyl]-2,2′:5′,3″-terpyridine-3′-carboxamide] | 0.54
